# In US12285440B2, “APOE4 impairs myelination via altered cholesterol biosynthesis and transport in oligodendroglia” (Massachusetts Institute of Technology, priority 2021, dated 2025):
# “Also recorded” adds a separate entry of the source.
# Assays:
# [1] = tested on: APOE4KI mice; experiment: Novel object recognition task; format: in vivo, mouse; conditions: female APOE4KI mice, control n=12, cyclodextrin n=14
# Protocol: (§1) To investigate whether the increased myelination observed in cyclodextrin treated APOE4KI mice could promote functional improvements, the novel object recognition assay was performed to evaluate learning and memory (FIG. 4G)^57.
# (§2) APOE4KI female mice were injected subcutaneously with either 200 μL Cyclodextrin (2 g/kg) or 200 μL saline, twice a week for eight weeks.
# (§3) Mice were placed in an open field arena and allowed to move freely for ten minutes. The total distance moved and time mice spent in the center of the arena was tracked using the EthoVision XT software from Noldus. 24 hours later, mice were then placed into the same arena containing two objects and allowed to freely investigate both for a period of eight minutes. After an interval of four hours, mice were then placed back in the chamber with one novel object and one familiar object. The preference index was calculated by determining how much time an animal spent with its nose interacting with the novel object, divided by the total time an animal spent interacting with either object.
# [2] = tested on: APOE4KI mice; experiment: Cyclodextrin treatment of APOE4KI mice, TEM of corpus callosum (g-ratio); conditions: n=150 neurons, 2 g/kg subcutaneous twice a week for eight weeks, vs control mice
# [3] = tested on: APOE4 iPSC-derived oligodendroglia; experiment: APOE oligodendroglia drug treatment, bodipy-cholesterol and bodipy lipid droplet staining; format: cell-based, human
# Protocol: It was reasoned that inhibiting cholesterol biosynthesis and/or facilitating cholesterol transport in APOE4 oligodendrocytes may reduce intracellular accumulation and improve myelination.
# Cells were plated onto a Millipore eight-chamber glass slide, at a density of 250,000 cells per well. Cells were then cultured in Neurobasal media, supplemented with PDGFR-α, NT3 and β-FGF. […] Cells were fixed with 4% PFA, and stained for Bodipy-cholesterol, WGA-555 and DAPI.
# [4] = tested on: APOE4KI mice; experiment: Cyclodextrin treatment of APOE4KI mice, brain immunohistochemistry (bodipy-cholesterol, Olig2, Mbp); format: in vivo, mouse; conditions: 2 g/kg subcutaneous twice a week for eight weeks, vs saline control
# Protocol: It was next assessed whether cyclodextrin could reduce aberrant cholesterol accumulation in oligodendrocytes and promote increased myelination in APOE4KI mice in vivo. APOE4KI mice were treated with subcutaneous injections of cyclodextrin or saline (control) for eight weeks (n=5 control and 4 cyclodextrin treated mice). […] To more directly assess myelination in cyclodextrin treated APOE4 mice, TEM-based ultrastructural analysis was performed.
# Animals were anaesthetized via exposure to gaseous isoflurane, and transcardially perfused with ice-cold PBS. The brains were dissected out, one hemisphere frozen in dry ice, and one hemisphere drop-fixed in 4% paraformaldehyde. The post-fixed hemisphere was sliced at a thickness of 40 μm using a Leica vibratome. Slices were blocked with a buffer containing 0.3% Triton-X and 10% normal donkey serum for two hours at room temperature, before being incubated with primary antibody overnight at 4° C. Slices were then washed with PBS and incubated with secondary antibody for two hours at room temperature, washed with PBS again, and mounted. Slides were imaged using a Zeiss LSM 880 microscope, and analyzed using the ImageJ “FIJI” or Imaris softwares. Human brain tissue slices were further incubated with TrueBlack for five minutes prior to mounting, to reduce auto-fluorescence.
# as §2
# [5] = tested on: APOE4 oligodendroglia/iNeuron co-cultures; experiment: In vitro myelination assay, oligodendroglia/iNeuron co-cultures, MBP and neurofilament staining; format: cell-based, human; conditions: APOE4 co-cultures treated 6 weeks
# From the text: To further investigate the effect of APOE4 on myelination an in vitro model of myelination was developed that employs the genetically controlled isogenic APOE cells derived from CRISPR-edited iPSCs. To achieve this, iPSC-derived oligodendroglia were co-cultured with neurons induced from iPSCs using NGN2 overexpression (iNeurons) in a three-dimensional extracellular matrix that allows each cell type to interact with other cells and self-assemble into tissue-like structures (FIG. 10D). After 2 weeks in these 3D co-cultures, MBP-positive oligodendroglia spread across the culture and engage neurofilament-positive axons (FIG. 10E). After 6 weeks in culture, myelin-associated proteins 04 and Mbp encircled numerous neurofilaments, mimicking biological processes critical to myelination (FIG. 10E). […] Therefore, it was sought to use this in vitro myelination assay to assess the effect of APOE4 on myelin-associated phenotypes in human cells. Consequently, oligodendroglia/iNeuron co-cultures from two different APOE4/4 and APOE3/3 isogenic sets of iPSC-derived cells were established. […]
# To determine whether cyclodextrin-induced cholesterol reduction in APOE4 oligodendroglia affected myelination, APOE4 oligodendroglia/iNeuron co-cultures were treated with cyclodextrin for 6 weeks and then assessed myelination phenotypes (FIG. 4C). […]
# [6] = tested on: CYP46A1; conditions: APOE4 oligodendroglia treated two weeks, vs untreated APOE4 controls
# [7] = tested on: APOE4KI mice; experiment: Open field task; format: in vivo, mouse; conditions: cyclodextrin-treated vs control APOE4KI mice
# Protocol: as §1, §2, §3
# [8] = tested on: iMGLs; experiment: Calcium imaging of Fluo-4 AM labeled iMGLs with compound uncaging; format: cell-based, human; conditions: 1 mM Caged ATP, uncaging at 405 nm
# [9] = tested on: iMGLs; experiment: Whole-cell patch-clamp of iMGLs, ATP-evoked currents; format: cell-based, human; conditions: local application of 100 μM
# [10] = tested on: forebrain spheroids; format: cell-based, human
compound,measurement,setting,value
2-hydroxypropyl-β-cyclodextrin,preference for novel object,[1],significantly (p=0.0466) increased preference for interacting with the novel object
same,g-ratio,[2],significantly (p<0.0001) lower g-ratio; also recorded: decrease in g-ratio
same,total bodipy-cholesterol staining,"[3]; APOE4 oligodendroglia treated two weeks (Atorvastatin 1 μM, Simvastatin 1 μM, Cyclodextrin 10 mM), compared with APOE3/3 oligodendroglia",reduced bodipy-cholesterol staining that was not significantly different (p>0.9999) from that in APOE3 oligodendroglia
same,neutral lipid droplets measured by bodipy staining,[3]; cyclodextrin-treated vs control APOE4 oligodendroglia,significant (p<0.0001) reduction
same,number of intracellular droplets of bodipy-cholesterol,"[3]; cyclodextrin-treated vs control APOE4 oligodendroglia, normalized to nuclei",significant (p=0.0092) reduction
same,Mbp staining,[4],significantly (p=0.0008) increased Mbp staining; also recorded: overall increase in Mbp
same,bodipy-cholesterol staining co-localizing within 1 μm of Mbp staining,[4],significant (p=0.0423) increase; also recorded: increase in cholesterol-myelin colocalization
same,bodipy-cholesterol staining accumulated around Olig2-positive nuclei,[4]; hippocampus,significantly (p=0.0038) reduced compared to control mice; also recorded: reduction of bodipy-cholesterol staining in cyclodextrin-treated mice
same,"levels of MBP localization with neurofilament, comparison with APOE3 co-cultures",[5],not significantly (p=0.0794) different from APOE3 co-cultures
same,MBP staining localized along neurofilament staining,"[5]; untreated APOE4 18.89%, APOE3 62.42%, p=0.0274",43.44%+/−5.382
same,expression of CYP46A1,[6],significant (p=0.0011) upregulation
same,total distance moved,[7]; p=0.1275,similar
same,velocity,[7]; p=0.1711,similar
same,duration in the center of the cages,[7]; p=0.4478,similar
Nc1ncnc2c1ncn2[C@@H]1O[C@H](COP(=O)(O)OP(=O)(O)OP(=O)(O)O)[C@@H](O)[C@H]1O [ATP],calcium transients upon ATP uncaging,[8],robust increase in calcium transients
same,"response to extracellular ATP, whole-cell patch-clamp",[9],iMGLs sensed extracellular ATP
NC1=N[C@H](O)[C@H]2[C@H]3O[C@]4(O)O[C@@H]([C@@H](O)[C@@]2(N1)[C@@H]4O)[C@]3(O)CO [tetrodotoxin],increase in iMGL calcium transients mediated by stimulated spheroid media,[10],reduced to levels of non-stimulated spheroid media
